The structures appear in SMILES notation.

The nature of the data set: gradient 5% acetonitrile 3 min, to 50% in 2 min, to 85% in 15 min, held 3 min, 100 µL/min. The conditions noted are these: column: Zorbax Extend-C18 2.1 x 50 mm; eluents: water / acetonitrile, 0.1% formic acid. A digest of the protocol:
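Pure standards were analyzed in mixtures of ~100 molecules using HPLC coupled to a quadrupole time-of-flight mass spectrometer, in both positive and negative ionization mode. Separation used a Zorbax Extend-C18 column (2.1 × 50 mm, 1.8 μm) at 100 μL/min, with water and acetonitrile each containing 0.1% formic acid. Dead and dwell volumes were 40 μL and 900 μL, and data were collected over 3 months. Retention time was read from computationally picked adduct peaks, each inspected manually.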
In turn, `Cn1cnc(S(=O)(=O)N2CCC(C(=O)Nc3ccc(F)c(F)c3)CC2)c1` had an RP-LC retention time of 709 s.
The compound `Cn1c(SCC(N)=O)nnc1-c1sc2cc(Cl)ccc2c1Cl` displayed an RP-LC retention time of 702 s.
As to `Cc1cc(N2CCOCC2)nc(N2CCN(C(=O)c3ccc(-c4ccccc4)cc3)CC2)n1`, the RP-LC retention time came to 720 s.
With `COc1ccccc1CNC(=O)CCC1CCN(c2cc(NC3CC3)ncn2)CC1` the figure was 669 s; with `COc1ccc(-c2nc(CCS(=O)(=O)c3ccc(C)cc3)no2)cc1OC`, 904 s.
To `Cc1ccc(-c2ccc(=O)n(Cc3nc(-c4ccc(F)cc4)no3)n2)cc1` belongs 1090 s.
`Cc1cc(F)cc2c(=O)c3c([nH]c12)CCN(CC(=O)Nc1ccc(F)c(Cl)c1)C3` gave an RP-LC retention time of 664 s.
To `COc1ccc(CC(=O)Nc2ccc3c(c2)Sc2ncccc2C(=O)N3C)c(Cl)c1` belongs 804 s; to `COc1ccccc1NC(=O)C1CCN(c2cc(N3CCCCC3)ncn2)CC1`, 700 s.
With `CC(CCc1ccco1)NC(=O)c1nnn(-c2ccccc2)c1-c1ccccn1` (centres undefined) the figure was 862 s.
With `Cc1ccc(C(=O)N[C@@H]2CN(S(C)(=O)=O)C[C@H]2CN(C)C)s1` the figure was 582 s; with `Cc1ccc2c(Nc3ccc4c(c3)OCCO4)c(C(=O)N3CCCC3)cnc2n1`, 592 s.
In the case of `COc1ccc(-c2nc(Cn3c(C)cc(C)c(-c4nc(-c5ccccc5)no4)c3=O)c(C)o2)cc1`, the RP-LC retention time was found to be 1230 s.
With `OC(CNCc1ccc(-c2cc(Cl)ccc2Cl)o1)c1ccccc1` (centres undefined), the RP-LC retention time amounted to 762 s.
To `Cn1nccc1-c1cccc(-c2noc(-c3ccccc3Cl)n2)c1` belongs 1170 s; to `CCc1cccc(NS(=O)(=O)c2ccc(-c3c(C)noc3C)cc2)c1`, 985 s.
Turning to `CCC(=O)N1CCc2cc(N3CC(C(=O)Nc4cc(C)ccc4F)CC3=O)ccc21` (centres undefined), the RP-LC retention time stood at 768 s.
With `c1cc(-c2noc(-c3ccsc3)n2)cc(N2CCCC2)n1` the figure was 664 s; with `CCc1nnc(-c2ccc3ccn(CC(=O)Nc4cc(OC)ccc4OC)c3c2)o1`, 770 s; with `CCOC(=O)c1c(C)oc2ncnc(NCc3ccc4c(c3)OCO4)c12`, 1050 s.
To `CCOC(=O)c1nc(NCc2ccc(C)cc2)c2ccccc2n1` belongs 823 s; to `CC1(C)SC2C(NC(=O)COc3ccccc3)C(=O)N2C1C(=O)O` (centres undefined), 821 s.
`Cc1nc2c(OCc3ccccc3)cccn2c1CC#N` displayed an RP-LC retention time of 655 s.
`Fc1ccc(-c2nc(-c3cn(Cc4ccccc4)nn3)no2)cc1` gave an RP-LC retention time of 1090 s.
With `Cc1cccc(-c2nnc(-c3nc(NCc4cccnc4)c4ccccc4n3)o2)c1` the figure was 691 s.
To `O=C(CSc1cc(N2CCN(c3ccccc3F)CC2)ncn1)NC1CCCCC1` belongs 1050 s; to `COc1ccc(C(C)NS(=O)(=O)c2cc(-c3nc(C(C)(C)C)cs3)cs2)cc1` (centres undefined), 1240 s; to `CCOC(=O)Cn1c(C2CC(=O)N(c3cccc(Cl)c3)C2)nc2ccccc21` (centres undefined), 872 s.
To `CC(C)n1c(CCNC(=O)c2c(F)cccc2F)nc2cccnc21` belongs 632 s.
For the compound `CCCN1CCN(C(=O)C2CCCN(S(=O)(=O)c3cc(-c4noc(C)n4)cs3)C2)CC1` (centres undefined), the RP-LC retention time worked out at 638 s.
In turn, `COc1ccc2c(c1)C1(CCN(C(=O)Cc3ccc(Cl)cc3)C1)C(=O)N2C` (centres undefined) showed an RP-LC retention time of 873 s.
To `COc1ccc(Cn2c(C)c(CNCc3ccc(C)o3)c(C(=O)O)c2C)cc1` belongs 714 s; to `CCC(C)NC(=O)c1cc(-c2ccc(F)cc2)cn1C` (centres undefined), 981 s; to `CC(C)(C)NC(=O)c1ccc(-c2nnc3ccc(NC(=O)C4CC4)cn23)cc1`, 731 s.
To `O=C(CC1CCCN(c2cnn(CC3CC3)c(=O)c2)C1)N1CCC2(CC1)OCCO2` (centres undefined) belongs 706 s; to `O=C(Nc1nnc(C2CC(=O)N(c3ccc(F)cc3)C2)o1)c1cccc(Cl)c1` (centres undefined), 750 s; to `COc1ccc(Cl)cc1NC(=O)CSc1ccc(-n2ccnc2)nn1`, 613 s.
`O=C(C1CCCN(c2nccnc2Sc2ccccc2)C1)N1CCN(c2cccc(Cl)c2)CC1` (centres undefined) registered an RP-LC retention time of 1260 s.
To `COc1ccc(OC)c(C(O)Cn2ccn3nc(-c4ccc(C(C)C)cc4)cc3c2=O)c1` (centres undefined) belongs 1090 s; to `O=S(=O)(c1ccc(Cl)c(-c2nnc(-c3ccccc3)o2)c1)N(CCO)CCO`, 739 s.
With `COc1ccc(CC(=O)NCCc2c[nH]c3ccc(Cl)cc23)cc1` the figure was 848 s; with `CCCc1noc(-c2nc(-c3ccccc3F)no2)n1`, 1090 s; with `CCN(C(=O)c1ccc2c(c1)OCO2)c1nc(-c2ccccc2)cs1`, 1200 s.
On to `Cc1cc(-c2cc(S(=O)(=O)N3CCN(C4CCCCC4)CC3)c(C)s2)n[nH]1`, for which the RP-LC retention time was 657 s.
The compound `Cc1nc2cc(N3CC(C(=O)NCc4ccc(OC(C)C)cc4)CC3=O)ccc2o1` (centres undefined) had an RP-LC retention time of 778 s.
Compound `Cc1ccn2c(Nc3ccc4c(c3)OCO4)c(-c3cc(Br)ccc3F)nc2c1` returned an RP-LC retention time of 747 s.
To `O=C(NCCOc1cccc(C(F)(F)F)c1)C1CCCC1` belongs 880 s; to `O=C1CC(CNS(=O)(=O)c2cccnc2)CN1c1ccc(Cl)cc1` (centres undefined), 694 s; to `CCC(C)N(CC(=O)N1CCc2sccc2C1COc1ccccc1OC)C(=O)COC` (centres undefined), 845 s.
Compound `COc1ccc([N+](=O)[O-])cc1NC(=O)c1cnc(N2CCN(c3ncccn3)CC2)c2ccccc12` yielded an RP-LC retention time of 973 s.
To `CN(C)CC(=O)N1CCC(Oc2nccnc2N2CCOCC2)C1` (centres undefined) belongs 561 s.
To `CC(=O)Oc1ccc2c(=O)c(Oc3ccc([N+](=O)[O-])cc3)c(C)oc2c1` belongs 854 s.
`CCc1cccc(NC(=O)N2CCc3c(c(-c4nc(C5CC5)no4)nn3C)C2)c1` gave an RP-LC retention time of 928 s.
`O=C(O)CCc1conc1-c1ccc(F)cc1` came in with an RP-LC retention time of 708 s.
With `Cc1ccc(NC(=O)c2cc3c(=O)n(C)c4ccccc4n3n2)cc1F` the figure was 975 s; with `O=C(c1ccc(N2CCCC2)c(S(=O)(=O)N2CCCC2)c1)N1CCN(c2ccccn2)CC1`, 664 s; with `CCN1CCN(CCCNC(=O)CCCn2c3ccccc3c3cnn(C)c(=O)c32)CC1`, 576 s.
With `COCC(=O)N1CCC(Oc2nccnc2N(C)C)C1` (centres undefined) the figure was 598 s; with `Cc1nc(Cn2cccc2C(=O)Nc2ccc(Br)c(C)c2)no1`, 995 s; with `CSc1ccc(CNC(=O)Cc2cn(C)c3ncccc23)cc1`, 686 s.
To `CCC(=O)N1CCc2cc(N3CC(C(=O)NC(C)CC)CC3=O)ccc21` (centres undefined) belongs 669 s; to `CCc1ccc(NC(=O)c2sc3nc(C)nc(N4CCN(c5ccccn5)CC4)c3c2C)cc1`, 779 s; to `COc1cccc(-n2c(=O)c(C(=O)Nc3ccc(F)cc3)c(O)c3cccnc32)c1`, 1210 s.
Take `COc1cccc(NC(=O)Cn2c(=O)n(-c3ccc(F)cc3)c(=O)c3c2cc(C)n3C)c1`: the RP-LC retention time came out at 834 s.
In turn, `CCN1CCc2nc(NC(=O)C3CCN(S(=O)(=O)c4cccs4)CC3)sc2C1` yielded an RP-LC retention time of 634 s.
To `O=C(c1nc2ccccc2s1)N1CCN(Cc2nc(-c3ccc(F)cc3)cs2)CC1` belongs 882 s; to `Cc1cccc(CN2CCC(CNC(=O)Nc3cn(C)c(=O)c4ccccc34)CC2)c1`, 603 s.
To `Cn1ncc(N2CCC(C(=O)NCc3nc4ccccc4n3C)C2)cc1=O` (centres undefined) belongs 569 s.
With `COc1ccc(S(=O)(=O)NCc2ccc3c(c2)CCN3C(=O)C(C)C)cc1OC` the figure was 803 s; with `O=C1NC(C(=O)Nc2ccc(F)c(F)c2)Cn2cccc21` (centres undefined), 693 s; with `CN1C(=O)c2cc(C(=O)NCc3ccc(Cl)cc3)nn2CC1(C)C(=O)NCc1ccc(F)cc1` (centres undefined), 805 s.
In turn, `CCN(CC)C(=O)N1CC(c2nc(-c3ccncc3)nn2C)C1` yielded an RP-LC retention time of 566 s.
Compound `COc1ccc2c(c1)CC(NC(=O)N1CCN(Cc3ccc4c(c3)OCO4)CC1)CO2` (centres undefined) came in with an RP-LC retention time of 652 s.
With `CCc1cc(C(=O)Nc2cc(C)ccc2F)nc2ccnn12` the figure was 1150 s; with `CCNC(=O)c1cn(-c2ccc(NC(=O)C3CC3)cn2)cn1`, 615 s; with `CCOc1ccc(NS(=O)(=O)c2cc(C(=O)Nc3ccc(C)cc3)n[nH]2)cc1`, 890 s.
`CC1CCN(c2cc(-n3cnc(C(=O)N4CCN(C5CCCCC5)CC4)c3)ncn2)CC1` registered an RP-LC retention time of 597 s.
With `Cc1ccc(-n2cc3c(c(C(=O)Nc4ccc5c(c4)OCCO5)c2=O)CC(C)(C)CC3=O)cc1` the figure was 1070 s.
Compound `Cc1nn(Cc2ccc(C(=O)NC(C)C)cc2)c(C)c1S(=O)(=O)N1CCC(C)CC1` had an RP-LC retention time of 880 s.

These data come from the METLIN SMRT retention time set (Domingo-Almenara et al. 2019).
